# Source: publication PMC5218480 (PLoS ONE, 2017)
# Test system: MV-4-11 cells
# Assay: Gene expression microarray analysis (Affymetrix PrimeView) and GSEA
# Type: cell-based, human
# Design: RFU PODN (11730768_x_at) / Fold change /veh PODN (11730768_x_at) / RFU LINC00158 (11744669_a_at) / Fold change /veh LINC00158 (11744669_a_at) / RFU DUSP10 (11751237_a_at) / Fold change /veh DUSP10 (11751237_a_at) / RFU ID3 (11757404_x_at) / Fold change /veh ID3 (11757404_x_at) / RFU PLEKHG5 (11737974_s_at) / Fold change /veh PLEKHG5 (11737974_s_at) / RFU LRRC4B (11730491_at) / Fold change /veh LRRC4B (11730491_at) / RFU GIMAP4 (11747438_a_at) / Fold change /veh GIMAP4 (11747438_a_at) / RFU KRT8 (11758183_x_at) / Fold change /veh KRT8 (11758183_x_at) / RFU CNN1 (11734310_a_at) / Fold change /veh CNN1 (11734310_a_at) / RFU VPS37D (11726825_at) / Fold change /veh VPS37D (11726825_at) / RFU C10orf10 (11716522_x_at) / Fold change /veh C10orf10 (11716522_x_at) / RFU KIR2DL2 /// KIR2DL4 /// KIR2DL5A /// KIR2DL5B /// KIR2DS1 /// KIR2DS2 /// KIR2DS3 /// KIR2DS4 /// KIR3DL3 /// KIR3DL3 /// KIR3DS1 (11738374_at) / Fold change /veh KIR2DL2 /// KIR2DL4 /// KIR2DL5A /// KIR2DL5B /// KIR2DS1 /// KIR2DS2 /// KIR2DS3 /// KIR2DS4 /// KIR3DL3 /// KIR3DL3 /// KIR3DS1 (11738374_at) / RFU C1QL1 (11718748_at) / Fold change /veh C1QL1 (11718748_at) / RFU TMPRSS4 (11747572_a_at) / Fold change /veh TMPRSS4 (11747572_a_at) / RFU HAMP (11756126_x_at) / Fold change /veh HAMP (11756126_x_at) / RFU RNFT2 (11725882_a_at) / Fold change /veh RNFT2 (11725882_a_at) / RFU NR4A2 (11747474_a_at) / Fold change /veh NR4A2 (11747474_a_at) / RFU ABCC12 (11746883_a_at) / Fold change /veh ABCC12 (11746883_a_at) / RFU TMEM136 (11760407_x_at) / Fold change /veh TMEM136 (11760407_x_at) / RFU CLDN22 /// WWC2 (11732394_at) / Fold change /veh CLDN22 /// WWC2 (11732394_at) / RFU HLA-DPB1 (11760878_x_at) / Fold change /veh HLA-DPB1 (11760878_x_at) / RFU SPINT1 (11716480_a_at) / Fold change /veh SPINT1 (11716480_a_at) / RFU GAP43 (11754022_s_at) / Fold change /veh GAP43 (11754022_s_at) / RFU A4GNT (11735810_at) / Fold change /veh A4GNT (11735810_at) / RFU PRB3 (11715151_x_at) / Fold change /veh PRB3 (11715151_x_at) / RFU TUBB4B (11761932_at) / Fold change /veh TUBB4B (11761932_at) / RFU CAPN14 (11732068_a_at) / Fold change /veh CAPN14 (11732068_a_at) / RFU TMCC2 (11721928_a_at) / Fold change /veh TMCC2 (11721928_a_at) / RFU IRGQ (11745062_a_at) / Fold change /veh IRGQ (11745062_a_at) / RFU FAM174B (11720279_a_at) / Fold change /veh FAM174B (11720279_a_at) / RFU TMPRSS4 (11748680_a_at) / Fold change /veh TMPRSS4 (11748680_a_at) / RFU FAM212B (11763350_a_at) / Fold change /veh FAM212B (11763350_a_at) / RFU PLEKHG5 (11743358_a_at) / Fold change /veh PLEKHG5 (11743358_a_at) / RFU ZSCAN30 (11745921_a_at) / Fold change /veh ZSCAN30 (11745921_a_at) / RFU CMKLR1 (11741424_a_at) / Fold change /veh CMKLR1 (11741424_a_at) / RFU LOC101060620 /// MAPK8IP1 (11723275_at) / Fold change /veh LOC101060620 /// MAPK8IP1 (11723275_at) / RFU SPTSSB (11747773_x_at) / Fold change /veh SPTSSB (11747773_x_at) / RFU PRSS12 (11739890_at) / Fold change /veh PRSS12 (11739890_at) / RFU BIN1 (11741810_x_at) / Fold change /veh BIN1 (11741810_x_at) / RFU WNT11 (11732464_a_at) / Fold change /veh WNT11 (11732464_a_at) / RFU C10orf10 (11716521_a_at) / Fold change /veh C10orf10 (11716521_a_at) / RFU C5orf56 (11738089_at) / Fold change /veh C5orf56 (11738089_at) / RFU CYB561 (11721691_x_at) / Fold change /veh CYB561 (11721691_x_at) / RFU ANKRD19P (11752326_a_at) / Fold change /veh ANKRD19P (11752326_a_at) / RFU OR2T12 /// OR2T33 /// OR2T8 (11738714_s_at) / Fold change /veh OR2T12 /// OR2T33 /// OR2T8 (11738714_s_at) / RFU VCAN (11748164_a_at) / Fold change /veh VCAN (11748164_a_at) / RFU JSRP1 (11732532_at) / Fold change /veh JSRP1 (11732532_at) / RFU KRTAP10-11 (11738290_x_at) / Fold change /veh KRTAP10-11 (11738290_x_at) / RFU MYO3A (11730013_a_at) / Fold change /veh MYO3A (11730013_a_at) / RFU EBF3 (11725865_a_at) / Fold change /veh EBF3 (11725865_a_at) / RFU CAMK2N1 (11719241_x_at) / Fold change /veh CAMK2N1 (11719241_x_at) / RFU C5orf56 (11738088_a_at) / Fold change /veh C5orf56 (11738088_a_at) / RFU OLFML3 (11715873_a_at) / Fold change /veh OLFML3 (11715873_a_at) / RFU LOC100653217 /// NTM (11731650_a_at) / Fold change /veh LOC100653217 /// NTM (11731650_a_at) / RFU MAPK11 (11762145_a_at) / Fold change /veh MAPK11 (11762145_a_at) / RFU FIZ1 (11724087_x_at) / Fold change /veh FIZ1 (11724087_x_at) / RFU OASL (11726364_x_at) / Fold change /veh OASL (11726364_x_at) / RFU SOX15 (11748057_x_at) / Fold change /veh SOX15 (11748057_x_at) / RFU CD79A (11719716_a_at) / Fold change /veh CD79A (11719716_a_at) / RFU HIST1H1D (11736915_at) / Fold change /veh HIST1H1D (11736915_at) / RFU CASKIN2 (11723855_a_at) / Fold change /veh CASKIN2 (11723855_a_at) / RFU LOC730098 (11760151_x_at) / Fold change /veh LOC730098 (11760151_x_at) / RFU OR4N2 (11742367_at) / Fold change /veh OR4N2 (11742367_at) / RFU PRRT2 (11749266_a_at) / Fold change /veh PRRT2 (11749266_a_at) / RFU SNX32 (11753110_a_at) / Fold change /veh SNX32 (11753110_a_at) / RFU CDHR5 (11726645_a_at) / Fold change /veh CDHR5 (11726645_a_at) / RFU RCAN1 (11760418_a_at) / Fold change /veh RCAN1 (11760418_a_at) / RFU FAM167A (11723789_a_at) / Fold change /veh FAM167A (11723789_a_at) / RFU FAM26E (11764081_at) / Fold change /veh FAM26E (11764081_at) / RFU ISYNA1 (11749810_s_at) / Fold change /veh ISYNA1 (11749810_s_at) / RFU ACY1 (11761880_at) / Fold change /veh ACY1 (11761880_at) / RFU 11764098_at / Fold change /veh 11764098_at / RFU SAMD14 (11745864_x_at) / Fold change /veh SAMD14 (11745864_x_at) / RFU NPB (11741838_a_at) / Fold change /veh NPB (11741838_a_at) / RFU TMPRSS6 (11731388_a_at) / Fold change /veh TMPRSS6 (11731388_a_at) / RFU KRTAP10-2 (11738614_at) / Fold change /veh KRTAP10-2 (11738614_at) / RFU ARHGAP8 /// PRR5-ARHGAP8 (11727945_x_at) / Fold change /veh ARHGAP8 /// PRR5-ARHGAP8 (11727945_x_at) / RFU KRTAP5-7 /// NADSYN1 (11734609_at) / Fold change /veh KRTAP5-7 /// NADSYN1 (11734609_at) / RFU RASL12 (11751679_a_at) / Fold change /veh RASL12 (11751679_a_at) / RFU CDKN2B (11736163_a_at) / Fold change /veh CDKN2B (11736163_a_at) / RFU PRF1 (11729649_at) / Fold change /veh PRF1 (11729649_at) / RFU, ZNF638 /// ZNF638-IT1 / Fold change vs veh, ZNF638 /// ZNF638-IT1 / RFU, PANK3 / Fold change vs veh, PANK3 / RFU, SH3YL1 / Fold change vs veh, SH3YL1 / RFU, ZEB2 / Fold change vs veh, ZEB2 / RFU, NRIP1 / Fold change vs veh, NRIP1 / RFU, PTTG1IP / Fold change vs veh, PTTG1IP / RFU, CAPN2 / Fold change vs veh, CAPN2 / RFU, MED14 / Fold change vs veh, MED14 / RFU, SNORA58 / Fold change vs veh, SNORA58 / RFU, C1orf63 / Fold change vs veh, C1orf63 / RFU, LRRFIP1 / Fold change vs veh, LRRFIP1 / RFU, NDUFAF7 / Fold change vs veh, NDUFAF7 / RFU, SLC12A2 / Fold change vs veh, SLC12A2 / RFU, IBTK / Fold change vs veh, IBTK / RFU, ESF1 / Fold change vs veh, ESF1 / Fold change vs veh, TMEM50B / RFU, TAOK1 / Fold change vs veh, TAOK1 / RFU, ACBD3 / Fold change vs veh, ACBD3 / RFU, TMA16 / Fold change vs veh, TMA16 / RFU, RWDD3 / Fold change vs veh, RWDD3 / RFU, BCAT1 / Fold change vs veh, BCAT1 / RFU, EDEM3 / Fold change vs veh, EDEM3 / RFU, TMEM33 / Fold change vs veh, TMEM33 / RFU, WDR75 / Fold change vs veh, WDR75 / RFU, AHCTF1 / Fold change vs veh, AHCTF1 / RFU, TFRC / Fold change vs veh, TFRC / RFU, ZDHHC17 / Fold change vs veh, ZDHHC17 / RFU, NOM1 / Fold change vs veh, NOM1 / RFU, ARL8B / Fold change vs veh, ARL8B / RFU, ZBTB11 / Fold change vs veh, ZBTB11 / RFU, TAMM41 / Fold change vs veh, TAMM41 / RFU, KIAA1704 /// LOC100996395 / Fold change vs veh, KIAA1704 /// LOC100996395 / RFU, ING1 / Fold change vs veh, ING1 / RFU, TRMT61B / Fold change vs veh, TRMT61B / RFU, FUBP3 / Fold change vs veh, FUBP3 / RFU, TP53 / Fold change vs veh, TP53 / RFU, TNKS2 / Fold change vs veh, TNKS2 / RFU, ZFP14 / Fold change vs veh, ZFP14 / RFU, ACTR2 / Fold change vs veh, ACTR2 / RFU, PPP3R1 / Fold change vs veh, PPP3R1 / RFU, PIK3R1 / Fold change vs veh, PIK3R1 / RFU, HNRNPA1 / Fold change vs veh, HNRNPA1 / RFU, RNF170 / Fold change vs veh, RNF170 / RFU, ZNF28 / Fold change vs veh, ZNF28 / RFU, RNGTT / Fold change vs veh, RNGTT / RFU, OGT / Fold change vs veh, OGT / RFU, BRD1 / Fold change vs veh, BRD1 / RFU, MARS / Fold change vs veh, MARS / RFU, ZNF655 / Fold change vs veh, ZNF655 / RFU, FAHD1 / Fold change vs veh, FAHD1 / RFU, BDP1 / Fold change vs veh, BDP1 / RFU, LRRCC1 / Fold change vs veh, LRRCC1 / RFU, ARID1A / Fold change vs veh, ARID1A / RFU, ZNF146 / Fold change vs veh, ZNF146 / RFU, ZNF330 / Fold change vs veh, ZNF330 / RFU, GPN3 / Fold change vs veh, GPN3 / RFU, C9orf123 / Fold change vs veh, C9orf123 / RFU, N4BP2L2 / Fold change vs veh, N4BP2L2 / RFU, ARFIP1 / Fold change vs veh, ARFIP1 / RFU, FAM179B / Fold change vs veh, FAM179B / RFU, BCL10 / Fold change vs veh, BCL10 / RFU, UHRF1BP1L / Fold change vs veh, UHRF1BP1L / RFU, BET1 / Fold change vs veh, BET1 / RFU, CNOT2 / Fold change vs veh, CNOT2 / RFU, ZNF268 / Fold change vs veh, ZNF268 / Fold change vs veh, ZNF507 / RFU, DGCR2 / Fold change vs veh, DGCR2 / RFU, WDSUB1 / Fold change vs veh, WDSUB1 / Fold change vs veh, HSP90B1 /// MIR3652 / RFU, ADSS / Fold change vs veh, ADSS / RFU, GK / Fold change vs veh, GK / RFU, ZNF148 / Fold change vs veh, ZNF148 / RFU, TAF9 / Fold change vs veh, TAF9 / RFU, SLC1A5 / Fold change vs veh, SLC1A5 / RFU, SLMO2 / Fold change vs veh, SLMO2 / RFU, ABCC4 / Fold change vs veh, ABCC4 / RFU, LOC101060439 /// RAP1B / Fold change vs veh, LOC101060439 /// RAP1B / RFU, RFX7 / Fold change vs veh, RFX7 / RFU, GTPBP10 / Fold change vs veh, GTPBP10 / RFU, CNEP1R1 / Fold change vs veh, CNEP1R1 / RFU, BIVM-ERCC5 /// ERCC5 / Fold change vs veh, BIVM-ERCC5 /// ERCC5 / RFU, ILF3 / Fold change vs veh, ILF3 / RFU 11762660_at / Fold change /veh 11762660_at / RFU VCAN (11757783_s_at) / Fold change /veh VCAN (11757783_s_at) / RFU DDX43 (11728927_at) / Fold change /veh DDX43 (11728927_at) / RFU KRT8 (11758188_x_at) / Fold change /veh KRT8 (11758188_x_at) / RFU NKD1 (11759106_at) / Fold change /veh NKD1 (11759106_at) / RFU SRD5A1 (11742802_a_at) / Fold change /veh SRD5A1 (11742802_a_at) / RFU TPSAB1 /// TPSB2 (11721975_s_at) / Fold change /veh TPSAB1 /// TPSB2 (11721975_s_at) / RFU GSTM3 (11746129_a_at) / Fold change /veh GSTM3 (11746129_a_at) / RFU IL23R (11737362_x_at) / Fold change /veh IL23R (11737362_x_at) / RFU TMEM51 (11727254_a_at) / Fold change /veh TMEM51 (11727254_a_at) / RFU PIWIL2 (11732686_x_at) / Fold change /veh PIWIL2 (11732686_x_at) / RFU ORM1 (11744905_x_at) / Fold change /veh ORM1 (11744905_x_at) / RFU CCDC152 (11743942_at) / Fold change /veh CCDC152 (11743942_at) / RFU ECM1 (11717891_a_at) / Fold change /veh ECM1 (11717891_a_at) / RFU IL23R (11748794_a_at) / Fold change /veh IL23R (11748794_a_at) / RFU TNFAIP8L3 (11732012_x_at) / Fold change /veh TNFAIP8L3 (11732012_x_at) / RFU MBOAT4 (11741988_at) / Fold change /veh MBOAT4 (11741988_at) / RFU 11764193_at / Fold change /veh 11764193_at / RFU TMEM53 (11763286_at) / Fold change /veh TMEM53 (11763286_at) / RFU MAGEB2 (11727129_at) / Fold change /veh MAGEB2 (11727129_at) / RFU TMEM200A (11744735_a_at) / Fold change /veh TMEM200A (11744735_a_at) / RFU CCDC152 (11751479_a_at) / Fold change /veh CCDC152 (11751479_a_at) / RFU FAM211A (11726209_a_at) / Fold change /veh FAM211A (11726209_a_at) / RFU RGS16 (11746705_a_at) / Fold change /veh RGS16 (11746705_a_at) / RFU VCAN (11755009_s_at) / Fold change /veh VCAN (11755009_s_at) / RFU RHOB (11743442_s_at) / Fold change /veh RHOB (11743442_s_at) / RFU RGS16 (11720943_a_at) / Fold change /veh RGS16 (11720943_a_at) / RFU RGS16 (11720944_at) / Fold change /veh RGS16 (11720944_at) / RFU, VPS4B / Fold change vs veh, VPS4B / RFU, CREB1 / Fold change vs veh, CREB1 / RFU, DNAJC13 / Fold change vs veh, DNAJC13 / RFU, GNAQ / Fold change vs veh, GNAQ / RFU, CDK5R1 / Fold change vs veh, CDK5R1 / RFU, ZRANB3 / Fold change vs veh, ZRANB3 / RFU, CUL4A / Fold change vs veh, CUL4A / RFU, CCNY / Fold change vs veh, CCNY / RFU, UFL1 / Fold change vs veh, UFL1 / RFU, COG3 / Fold change vs veh, COG3 / RFU, DIAPH2 / Fold change vs veh, DIAPH2 / RFU, SKA2 / Fold change vs veh, SKA2 / RFU, AFF3 / Fold change vs veh, AFF3 / RFU, LMF1 / Fold change vs veh, LMF1 / RFU, IPO11 / Fold change vs veh, IPO11 / RFU, DFFB / Fold change vs veh, DFFB / RFU, FOXP1 / Fold change vs veh, FOXP1 / RFU, CARD8 / Fold change vs veh, CARD8 / RFU, STRN3 / Fold change vs veh, STRN3 / RFU, ADK / Fold change vs veh, ADK / RFU, RASSF2 / Fold change vs veh, RASSF2 / RFU, WIPF1 / Fold change vs veh, WIPF1 / RFU, LARP1B / Fold change vs veh, LARP1B / RFU, RASA1 / Fold change vs veh, RASA1 / RFU, RB1 / Fold change vs veh, RB1 / RFU, PPFIA1 / Fold change vs veh, PPFIA1 / RFU, MAT2A / Fold change vs veh, MAT2A / RFU, CCT5 / Fold change vs veh, CCT5 / RFU, WDR92 / Fold change vs veh, WDR92 / RFU, CUX1 / Fold change vs veh, CUX1 / RFU, TTC7A / Fold change vs veh, TTC7A / RFU, TMEM135 / Fold change vs veh, TMEM135 / RFU, DEPTOR / Fold change vs veh, DEPTOR / RFU, CPM / Fold change vs veh, CPM / RFU, DNAJB6 / Fold change vs veh, DNAJB6 / RFU, CACNA2D3 / Fold change vs veh, CACNA2D3 / RFU, DTX4 / Fold change vs veh, DTX4 / RFU, TFCP2 / Fold change vs veh, TFCP2 / RFU, GMCL1 /// GMCL1P1 / Fold change vs veh, GMCL1 /// GMCL1P1 / RFU, AEBP2 / Fold change vs veh, AEBP2 / RFU, SNHG1 /// SNORD22 /// SNORD25 /// SNORD26 /// SNORD27 /// SNORD28 /// SNORD29 /// SNORD31 / Fold change vs veh, SNHG1 /// SNORD22 /// SNORD25 /// SNORD26 /// SNORD27 /// SNORD28 /// SNORD29 /// SNORD31 / Fold change (Aza/veh), C12orf56 (ProbeSet 11735607_a_at) / Fold change (ACY-1035/veh), C12orf56 (ProbeSet 11735607_a_at) / Fold change (Aza/veh), FGFR1OP (ProbeSet 11751329_s_at) / Fold change (ACY-1035/veh), FGFR1OP (ProbeSet 11751329_s_at) / Fold change (Aza/veh), VPS36 (ProbeSet 11739960_a_at) / Fold change (ACY-1035/veh), VPS36 (ProbeSet 11739960_a_at) / RFU SYPL1 (11715823_x_at) / Fold change /veh SYPL1 (11715823_x_at) / RFU IGFBP7 (11715501_s_at) / Fold change /veh IGFBP7 (11715501_s_at) / RFU REEP3 (11722064_at) / Fold change /veh REEP3 (11722064_at) / RFU IGLL1 (11728026_x_at) / Fold change /veh IGLL1 (11728026_x_at): dose or concentration left out as unconfirmed
# Settings: ProbeSet 11725885_a_at; LIST B
smiles,measurement,value
Nc1ccc(-c2cccs2)cc1NC(=O)c1ccc2c(c1)cc(C1CC1)n2CCN1CCOCC1 [ACY-1035],"RFU, CNEP1R1",81.80 RFU
